Publication PMC11358443, “Polymodal K^+ channel modulation contributes to dual analgesic and anti-inflammatory actions of traditional botanical medicines” (Communications Biology, 2024)

Tests used:
C57BL/6 mice = test system: C57BL/6 mice; parameters: method as in Abbott et al., 2021 Front. Physiol. 12:777057; conditions: 5 mg/kg morphine; ref Abbott et al., 2021 Front. Physiol. 12:777057; cited from earlier work
TREK-1 = conditions: read-out: TREK-1 activation EC50; cited from earlier work
Kv7.5 [1] = molecular target: T1, Kv7.5 (Homo sapiens, UniProt Q9NR82); parameters: method as in PMID 35997997; conditions: cited from earlier work
Kv1.1 [2] = molecular target: T2, Kv1.1 (Homo sapiens, UniProt Q09470); parameters: method as in PMID 33093824; conditions: cited from earlier work
Kv1.1 [3] = molecular target: T2, Kv1.1; assay: TEVC electrophysiology, Xenopus oocytes expressing Kv1.1; format: cell-based; conditions: 100 µM; for Slope / V0.5 Normalized tail current / V0.5 non-normalized tail current: paired control in same table
Experimental: (§1) We generated human potassium channel cRNA transcripts with the mMessage mMachine kit (Thermo Fisher Scientific, Waltham, MA, USA) according to manufacturer’s instructions, after vector linearization, from cDNA sub-cloned into expression vectors (pTLNx, pXOOM and pMAX). We injected Xenopus laevis oocytes (Xenoocyte, Dexter, MI, USA) with the channel cRNAs (0.5–10 ng) and incubated the oocytes at 16 °C for 1–4 days prior to electrophysiological recording.
(§2) We performed TEVC at 20–23 °C with an OC-725C amplifier (Warner Instruments, Hamden, CT, USA) and pClamp10 software. Chemicals for recording and oocyte storage solutions were from Sigma-Aldrich (St. Louis, MO). Bath solution contained (in mM): 96 NaCl, 4 KCl, 1 MgCl2, 1 CaCl2, 10 HEPES (pH 7.6). Pipettes were 1–2 MΩ resistance when filled with 3 M KCl. We recorded currents in response to voltage pulses between −120 mV or −80 mV and +40 mV at 10 mV intervals from a holding potential of −80 mV, to yield current–voltage relationships and examine activation kinetics. We recorded and analyzed data using Clampfit (Molecular Devices, Sunnyvale, CA, USA) and Graphpad Prism software (GraphPad, San Diego, CA, USA), stating values as mean ± SEM. We calculated the voltage dependence of activation (V0.5) by measuring tail currents at a voltage pulse of −30 mV (Kv7) or −50 mV (Kv1), then fitted the tail current/voltage relationship with a single Boltzmann function:1 g=(A1−A2)/{1+exp[V1/2−V/Vs]}y+A2 where g is the normalized tail conductance, A1 is the initial value at −∞, A2 is the final value at +∞, V1/2 is the half-maximal voltage of activation and Vs the slope factor. We fitted activation and deactivation kinetics with single exponential functions.

Kv7.5 [4] = molecular target: T1, Kv7.5; assay: TEVC electrophysiology, Xenopus oocytes expressing Kv7.5; format: cell-based; conditions: 100 µM
Experimental: as §1, §2

T2 sequence (Q09470 whole entry): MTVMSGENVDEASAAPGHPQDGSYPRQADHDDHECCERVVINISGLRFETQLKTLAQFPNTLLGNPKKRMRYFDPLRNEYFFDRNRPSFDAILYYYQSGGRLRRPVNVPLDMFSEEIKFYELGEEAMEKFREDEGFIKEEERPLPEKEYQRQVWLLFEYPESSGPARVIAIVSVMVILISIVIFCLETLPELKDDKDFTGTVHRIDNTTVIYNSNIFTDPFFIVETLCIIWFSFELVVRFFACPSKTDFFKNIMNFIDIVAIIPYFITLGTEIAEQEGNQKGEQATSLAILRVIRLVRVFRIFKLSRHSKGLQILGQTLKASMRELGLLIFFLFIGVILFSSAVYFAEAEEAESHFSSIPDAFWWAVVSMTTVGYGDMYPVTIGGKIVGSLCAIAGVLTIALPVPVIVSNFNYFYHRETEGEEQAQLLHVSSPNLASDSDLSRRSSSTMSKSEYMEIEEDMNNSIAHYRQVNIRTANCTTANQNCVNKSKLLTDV
T1 sequence (Q9NR82 whole entry): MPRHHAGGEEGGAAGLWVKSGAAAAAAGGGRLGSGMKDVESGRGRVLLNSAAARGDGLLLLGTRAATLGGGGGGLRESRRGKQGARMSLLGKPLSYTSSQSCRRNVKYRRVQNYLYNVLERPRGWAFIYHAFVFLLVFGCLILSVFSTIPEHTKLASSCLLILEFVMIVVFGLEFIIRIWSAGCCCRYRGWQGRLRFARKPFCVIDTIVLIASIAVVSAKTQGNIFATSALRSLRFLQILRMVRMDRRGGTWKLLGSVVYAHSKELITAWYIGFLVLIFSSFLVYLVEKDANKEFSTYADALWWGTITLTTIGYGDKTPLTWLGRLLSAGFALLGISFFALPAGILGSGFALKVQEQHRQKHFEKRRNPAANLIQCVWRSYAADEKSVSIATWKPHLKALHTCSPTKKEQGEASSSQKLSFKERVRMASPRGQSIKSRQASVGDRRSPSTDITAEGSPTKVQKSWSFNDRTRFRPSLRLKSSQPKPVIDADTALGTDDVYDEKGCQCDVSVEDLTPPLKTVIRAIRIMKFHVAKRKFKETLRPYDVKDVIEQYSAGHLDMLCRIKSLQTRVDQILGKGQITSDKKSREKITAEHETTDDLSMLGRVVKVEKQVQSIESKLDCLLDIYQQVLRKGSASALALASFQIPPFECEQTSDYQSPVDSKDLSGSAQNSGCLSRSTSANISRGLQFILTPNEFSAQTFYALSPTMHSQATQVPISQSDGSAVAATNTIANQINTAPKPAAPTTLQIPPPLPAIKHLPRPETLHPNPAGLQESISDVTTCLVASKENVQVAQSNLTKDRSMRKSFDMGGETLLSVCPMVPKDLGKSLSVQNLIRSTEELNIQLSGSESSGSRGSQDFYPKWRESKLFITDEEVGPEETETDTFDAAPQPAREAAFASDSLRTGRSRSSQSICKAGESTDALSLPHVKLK

## CN1CC[C@]23c4c5ccc(O)c4O[C@H]2[C@@H](O)C=C[C@H]3[C@H]1C5 [morphine]
C57BL/6 mice
  attenuation of early phase paw-licking: 40%

## Cc1cc(Cl)ccc1OCCNC(=O)c1cccs1 [ML402]
TREK-1
  EC50: 14 µM

## CS(=O)(=O)Nc1ccc(C(=O)NCc2ccc(Cl)cc2Cl)cc1 [ML335]
TREK-1
  EC50: 14 µM

## O=C(O)c1cc(O)c(O)c(O)c1 [gallic acid]
Kv7.5 [1]
  activity on Kv7.5 compared with tannic acid: active but less efficacious
Kv1.1 [2]
  effect on voltage dependence of Kv1.1: negative-shift

## c1ccc(-c2nnn[nH]2)c(Nc2cccc3c2CCCC3)c1 [BL-1249, (5,6,7,8-tetrahydro-naphthalen-1-yl)-[2-(1H-tetrazol-5-yl)-phenyl]-amine]
TREK-1
  EC50: 1.5 µM

## Oc1cc(O)c2c(c1)OC(c1ccc(O)c(O)c1)C(O)C2 (single isomer, unassigned; (+)) [catechin hydrate, (+)-Catechin hydrate]
Kv1.1 [3]
  Slope: 6.10 ± 0.15 mV
  V0.5 Normalized tail current: -37.70 ± 0.45 mV
  V0.5 non-normalized tail current: -39.60 ± 0.63 mV

## O=C(OC[C@H]1OC(O)[C@@](O)(COC(=O)c2cc(O)c(O)c(O)c2)[C@@H]1O)c1cc(O)c(O)c(O)c1 (stereo partly drawn) [hamamelitannin]
Kv7.5 [4]
  activity on Kv7.5 expressed in oocytes: inactive
Kv7.5 [4]; control 7.66 ± 0.33
  Slope: 7.57 ± 0.17 mV
Kv7.5 [4]; control -48.15 ± 1.14
  V0.5 Normalized tail current: -47.96 ± 0.99 mV
Kv7.5 [4]; control -50.27 ± 1.37
  V0.5 non-normalized tail current: -49.87 ± 1.44 mV
Kv1.1 [3]
  effect on EM of oocytes expressing Kv1.1: hyperpolarized the EM
  effect on Kv1.1: negative-shifted the voltage dependence of Kv1.1 activation
  Slope: 6.51 ± 0.73 mV
  V0.5 Normalized tail current: -35.11 ± 1.66 mV
  V0.5 non-normalized tail current: -36.25 ± 1.77 mV
